Laboratory results taken from the supplement of paper PMC10307832.

Columns and labels:
Assay in all cases: relative viability (nuclei count vs DMSO), 5 days (fraction); higher = more cells survive
VE-821 = compound: CS(=O)(=O)c1ccc(-c2cnc(N)c(C(=O)Nc3ccccc3)n2)cc1 [VE-821]
In short: (§1)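 Viability was read as treated-well nuclei divided by vehicle-well nuclei, using the median across plates. Lung cancer cell lines in 1536-well plates were kept overnight at 37 °C, pinned with five √10-spaced library-drug doses, and after 5 days were Hoechst-stained, imaged at 4× and counted in MetaXpress. Plates passed only with control CV below 25% and at least one doubling.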

Vismodegib = compound: CS(=O)(=O)c1ccc(C(=O)Nc2ccc(Cl)c(-c3ccccn3)c2)c(Cl)c1 [Vismodegib]
In short: as §1

Ruxolitinib = compound: N#CC[C@H](C1CCCC1)n1cc(-c2ncnc3[nH]ccc23)cn1 [Ruxolitinib]
In short: as §1

Vismodegib + Crizotinib = compound: CS(=O)(=O)c1ccc(C(=O)Nc2ccc(Cl)c(-c3ccccn3)c2)c(Cl)c1 [Vismodegib] + C[C@@H](Oc1cc(-c2cnn(C3CCNCC3)c2)cnc1N)c1c(Cl)ccc(F)c1Cl [Crizotinib] (partner 1 µM)
In short: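 A single step with final 0.05% Triton X-100, 1% formaldehyde and 1 ug/ml Hoechst fixed the cells and stained nuclei 5 days after treatment. Lung cancer cell lines in 1536-well plates had been treated by pin tool the day after seeding with one drug alone or a fixed anchor-drug dose plus five library-drug doses (not always all listed) in √10 steps, and nuclei were counted on 4× images. Relative viability is the ratio of nuclei in treated wells to nuclei in vehicle wells, taken as the median of duplicate plates.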

| Cell Line | relative viability (VE-821; 0.08 µM) | relative viability (VE-821; 0.253 µM) | relative viability (VE-821; 0.8 µM) | relative viability (VE-821; 2.53 µM) | relative viability (VE-821; 8 µM) | relative viability (Vismodegib; 0.08 µM) | relative viability (Vismodegib; 0.253 µM) | relative viability (Vismodegib; 0.8 µM) | relative viability (Vismodegib; 2.53 µM) | relative viability (Vismodegib; 8 µM) | relative viability (Ruxolitinib; 0.08 µM) | relative viability (Ruxolitinib; 0.253 µM) | relative viability (Ruxolitinib; 0.8 µM) | relative viability (Ruxolitinib; 2.53 µM) | relative viability (Ruxolitinib; 8 µM) | relative viability (Vismodegib + Crizotinib; first compound 0.08 µM) | relative viability (Vismodegib + Crizotinib; first compound 0.253 µM) | relative viability (Vismodegib + Crizotinib; first compound 0.8 µM) | relative viability (Vismodegib + Crizotinib; first compound 2.53 µM) | relative viability (Vismodegib + Crizotinib; first compound 8 µM) |
| --- | --- | --- | --- | --- | --- | --- | --- | --- | --- | --- | --- | --- | --- | --- | --- | --- | --- | --- | --- | --- |
| LU99A | 0.987 | 1.01 | 0.962 | 0.998 | 0.464 | 0.989 | 0.899 | 0.964 | 0.819 | 0.922 | 1.06 | 0.997 | 1.08 | 0.816 | 0.777 | 0.664 | 0.49 | 0.575 | 0.491 | 0.624 |
| LXF-289 | 1.06 | 1.1 | 1.09 | 1.06 | 1.14 | 1.02 | 0.989 | 1.03 | 0.988 | 0.902 | 0.965 | 0.996 | 0.938 | 0.944 | 0.919 | 0.806 | 0.772 | 0.816 | 0.745 | 0.781 |
| NCI-H23 | 1.03 | 0.888 | 0.983 | 0.818 | 0.319 | 1.05 | 0.931 | 0.886 | 0.926 | 0.773 | 1.04 | 1.01 | 0.995 | 0.84 | 0.772 | 0.489 | 0.54 | 0.597 | 0.553 | 0.537 |
| NCI-H322M | 0.96 | 0.912 | 0.96 | 0.864 | 0.371 | 0.912 | 0.896 | 0.932 | 0.868 | 0.88 | 0.934 | 0.962 | 1.04 | 1.27 | 1.36 | 0.858 | 0.869 | 0.849 | 0.879 | 1.08 |
| NCI-H358 | 1.05 | 0.964 | 0.936 | 1.08 | 0.803 | 0.945 | 0.989 | 0.973 | 0.911 | 0.921 | 0.848 | 0.921 | 0.889 | 0.537 | 0.63 | 0.596 | 0.479 | 0.546 | 0.551 | 0.579 |
| NCI-H441 | 1.16 | 1.1 | 1.34 | 1.34 | 0.793 | 1.02 | 0.909 | 1.01 | 0.98 | 1.04 | 0.946 | 0.933 | 1.16 | 0.962 | 0.699 | 0.68 | 0.745 | 0.658 | 0.722 | 0.723 |
| NCI-H460 | 1.05 | 0.983 | 0.947 | 0.82 | 0.56 | 1.01 | 0.979 | 1 | 0.981 | 1.03 | 1.03 | 1.06 | 1.07 | 1 | 0.96 | 0.985 | 0.925 | 1.04 | 0.936 | 0.999 |
| NCI-H520 | 1.05 | 0.992 | 0.723 | 1.06 | 0.67 | 0.922 | 0.885 | 0.927 | 0.875 | 1.11 | 1.07 | 0.749 | 1.2 | 0.934 | 0.951 | 0.854 | 0.662 | 0.714 | 0.679 | 0.896 |
| NCI-H596 | 0.984 | 0.907 | 0.972 | 0.975 | 1 | 0.986 | 1.02 | 0.898 | 0.932 | 0.952 | 1.09 | 0.98 | 1.12 | 1.09 | 1.07 | 0.986 | 0.966 | 0.929 | 1.02 | 0.965 |
| NCI-H647 | 1.11 | 0.9 | 0.798 | 0.987 | 0.506 | 0.913 | 0.863 | 0.978 | 0.964 | 1.14 | 0.81 | 0.962 | 1.04 | 0.897 | 0.836 | 1.07 | 1.13 | 1.11 | 0.969 | 1.07 |
| NCI-H650 | 1.04 | 0.909 | 1.05 | 1.1 | 0.895 | 0.953 | 0.895 | 0.88 | 0.915 | 0.815 |  | 0.937 | 1.01 | 0.854 | 0.696 | 0.61 | 0.702 | 0.687 | 0.809 | 0.865 |
| NCI-H661 | 0.986 | 0.998 | 0.976 | 0.997 | 0.919 | 0.973 | 0.975 | 0.997 | 0.909 | 1.02 | 0.958 | 0.963 | 1.04 | 1.03 | 0.92 | 0.961 | 0.94 | 1.05 | 0.93 | 1.01 |
| NCI-H727 | 0.894 | 0.884 | 0.958 | 0.911 | 0.446 | 0.891 | 0.931 | 0.804 | 0.988 | 0.81 | 0.934 | 1.02 | 1.11 | 0.904 | 1.36 | 0.733 | 0.771 | 0.576 | 0.938 | 0.857 |
